Literature values as cited in patent US20220409679A1, “COMPOSITIONS AND METHODS WITH A PROBIOTIC AND A NUTRIENT AND/OR MINERAL FOR THE PREVENTION OR TREATMENT OF MASTITIS” (SOCIETE DES PRODUITS NESTLE S.A., priority 2019, published 2022).

Assays:
mastitis in cows = conditions: O'Rourke 2009; for symptoms associated with mastitis: supplementation
[1] = O'Rourke 2009

Compound	immune system (mastitis in cows)	symptoms associated with mastitis (mastitis in cows)	antibacterial activity in milk [1]
[Cu] [copper]	enhance the immune system	reduce mastitis symptoms in cows	–
[Se] [selenium]	–	improves symptoms associated with mastitis in cows	improves antibacterial activity in milk
[Zn] [zinc]	enhance the immune system	reduce mastitis symptoms in cows	–
